Reference: US20250179059A1 (The Regents of the University of California, priority 2021, published 2025)
Where two headings read alike, the source gives them in different places.

Tests used:
[1] = system: human SKM-1 acute myeloid leukemia cells; experiment: SKM-1 antiproliferation cell-based assay (ATPlite); conditions: Homo sapiens
How it was run: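 Log-phase cells in RPMI 1640/15% FBS were seeded at 34722 cells/mL and exposed for 4 days to nine-concentration DMSO serial dilutions in triplicate. Viability was read as ATP luminescence (ATPlite 1step), and IC50 values came from variable-slope non-linear regression.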

[2] = target: T1, human BRD4 bromodomain II (Homo sapiens, UniProt O60885); experiment: Bromodomain binding assay (AlphaScreen), BRD4 BDII
T1 construct: human BRD4 bromodomain II [based on Genbank NM_058243, residues 349-460]; host or cells: E. coli
How it was run: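 E. coli-expressed N-terminal His6-tagged human BRD4 BDII (residues 349-460) or BDI (residues 44-170) was preincubated 30 min at room temperature with compound (10-point, 3-fold) in pH 7.5 HEPES buffer, 1% DMSO. Displacement of biotinylated tetra-acetylated H4 1-21 peptide was read by AlphaScreen, and IC50 came from curve fitting.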

[3] = SKM-1, 96 h, SKM-1 antiproliferation assay, 4 days, Table C2
[4] = AlphaScreen assay, Table C2, read-out: BRD4 BDII IC50
[5] = SKM-1, SKM-1 antiproliferation assay
[6] = BRD4 BDII AlphaScreen assay, read-out: BRD4 BD2 IC50

For Cn1ccn(-c2ccc(-c3cc(F)cc(-c4ccnc(N5CCN(CCCN)CC5)c4)c3O)cc2Cl)c1=O [Example 620, 1-(3′-(2-(4-(3-aminopropyl)piperazin-1-yl)pyridin-4-yl)-3-chloro-5′-fluoro-2′-hydroxy-[1,1′-biphenyl]-4-yl)-3-methyl-1H-imidazol-2(3H)-one], the GI50 [1, 3] was 30 to 300 nM and the IC50 [2, 4] was 0.01 to 1 nM.

With CN1CCN(c2ccc(-c3cc(F)cc(-c4cnc(OC5CCC(O)CC5)c(N5CCNCC5)c4)c3O)cc2Cl)C1=O (stereo not shown) [Example 421, 1-(3-chloro-5′-fluoro-2′-hydroxy-3′-(6-((4-hydroxycyclohexyl)oxy)-5-(piperazin-1-yl)pyridin-3-yl)-[1,1′-biphenyl]-4-yl)-3-methylimidazolidin-2-one] the GI50 [1, 3] was 30 to 300 nM and the IC50 [2, 4] was 0.01 to 1 nM.

In the case of Cn1ccn(-c2ccc(-c3cc(F)cc(-c4ccnc(N5CCN(C6COC6)CC5)c4)c3O)cc2Cl)c1=O [Example 528, 1-(3-chloro-5′-fluoro-2′-hydroxy-3′-(2-(4-(oxetan-3-yl)piperazin-1-yl)pyridin-4-yl)-[1,1′-biphenyl]-4-yl)-3-methyl-1H-imidazol-2(3H)-one], the GI50 [1, 3] is reported as 0.3 to 30 nM and the IC50 [2, 4] is reported as 1 to 10 nM.

For O=c1sccn1-c1ccc(-c2cc(F)cc(-c3ccnc(N4CCNCC4)c3)c2O)cc1Cl [Example 473, 3-(3-chloro-5′-fluoro-2′-hydroxy-3′-(2-(piperazin-1-yl)pyridin-4-yl)-[1,1′-biphenyl]-4-yl)thiazol-2(3H)-one], the GI50 [1, 3] was 0.3 to 30 nM and the IC50 [2, 4] was 1 to 10 nM.

With Cn1ccn(-c2ccc(-c3cc(F)cc(-c4ccnc(N5CC[C@@H](C(N)=O)C5)c4)c3O)cc2Cl)c1=O [Example 761, (R)-1-(4-(3′-chloro-5-fluoro-2-hydroxy-4′-(3-methyl-2-oxo-2,3-dihydro-1H-imidazol-1-yl)-[1,1′-biphenyl]-3-yl)pyridin-2-yl)pyrrolidine-3-carboxamide] the GI50 [1, 3] was 30 to 300 nM and the IC50 [2, 4] was 1 to 10 nM.

CC(=O)Nc1ccc(-c2cccc(-c3ccnc(N4CC(C)NC(C)C4)c3)c2O)cc1F (stereo not shown) [Example 279, N-(3′-(2-(3,5-dimethylpiperazin-1-yl)pyridin-4-yl)-3-fluoro-2′-hydroxy-[1,1′-biphenyl]-4-yl)acetamide] was tested, and the GI50 [1, 3] was 300 to 3000 nM and the IC50 [2, 4] was 1 to 10 nM.

With [2H]C([2H])([2H])n1ccn(-c2ccc(-c3cc(F)cc(-c4ccnc(N5CCNC[C@@H]5C)c4)c3O)cc2Cl)c1=O [Example 482, (S)-1-(3-chloro-5′-fluoro-2′-hydroxy-3′-(2-(2-methylpiperazin-1-yl)pyridin-4-yl)-[1,1′-biphenyl]-4-yl)-3-deuteromethyl-1H-imidazol-2(3H)-one] the GI50 [1, 3] was 0.3 to 30 nM and the IC50 [2, 4] was 0.01 to 1 nM.

Compound Cn1ccn(-c2c(F)cc(-c3cc(F)cc(-c4ccnc(N5CCNCC5)c4)c3O)cc2Cl)c1=O [Example 436, 1-(3-chloro-5,5′-difluoro-2′-hydroxy-3′-(2-(piperazin-1-yl)pyridin-4-yl)-[1,1′-biphenyl]-4-yl)-^3-methyl-1H-imidazol-2(3H)-one] has a GI50 [1, 3] of 30 to 300 nM and an IC50 [2, 4] of 1 to 10 nM.

CN1CCN(c2ccc(-c3cc(F)cc(-c4cc(N5CC[C@H](N)C5)c(=O)n(C)c4)c3O)cc2Cl)C1=O [Example 394, (S)-3-(3-aminopyrrolidin-1-yl)-5-(3′-chloro-5-fluoro-2-hydroxy-4′-(3-methyl-2-oxoimidazolidin-1-yl)-[1,1′-biphenyl]-3-yl)-1-methylpyridin-2(1H)-one] showed a GI50 [1, 3] of 30 to 300 nM and an IC50 [2, 4] of 1 to 10 nM.

CN1CCN(c2ccc(-c3cc(OC(F)(F)F)cc(-c4ccnc(N5CCNCC5)c4)c3O)cc2Cl)C1=O [Example 309, l-(3-chloro-2′-hydroxy-3′-(2-(piperazin-l-yl)pyridin-4-yl)-5′-(trifluoromethoxy)-[1,1′-biphenyl]-4-yl)-3-methylimidazolidin-2-one] gave a GI50 [1, 3] of at least 3000 nM and an IC50 [2, 4] of 10 to 100 nM.

Work on CN1CCN(c2ccc(-c3cccc(-c4cncc(N5CCNCC5)c4)c3O)cc2Cl)C1=O [Example 293, 1-(3-chloro-2′-hydroxy-3′-(5-(piperazin-l-yl)pyridin-3-yl)-[1,1′-biphenyl]-4-yl)-3-methylimidazolidin-2-one] yielded a GI50 [1, 3] of 30 to 300 nM and an IC50 [2, 4] of 1 to 10 nM.

CN1CC2(C1)CN(c1cc(-c3cc(F)cc(-c4ccc(-n5ccn(C)c5=O)c(Cl)c4)c3O)ccn1)C2 [Example 489, 1-(3-chloro-5′-fluoro-2′-hydroxy-3′-(2-(6-methyl-2,6-diazaspiro[3.3]heptan-2-yl)pyridin-4-yl)-[1,1′-biphenyl]-4-yl)-3-methyl-1H-imidazol-2(3H)-one] was tested, and the GI50 [1, 3] was 0.3 to 30 nM and the IC50 [2, 4] was 1 to 10 nM.

C[C@@H]1CN(c2cc(-c3cc(Cl)cc(-c4ccc(-n5ccn(C)c5=O)c(Cl)c4)c3O)ccn2)CCN1 [Example 540, (R)-1-(3,5′-dichloro-2′-hydroxy-3′-(2-(3-methylpiperazin-1-yl)pyridin-4-yl)-[1,1′-biphenyl]-4-yl)-3-methyl-1H-imidazol-2(3H)-one] gave a GI50 [1, 3] of 0.3 to 30 nM and an IC50 [2, 4] of 1 to 10 nM.

Work on CC(=O)Nc1ccc(-c2cccc(-c3ccnc(N4CC[C@H](O)C4)c3)c2O)cc1F [Example 239, (S)-N-(3-fluoro-2′-hydroxy-3′-(2-(3-hydroxypyrrolidin-1-yl)pyridin-4-yl)-[1,1′-biphenyl]-4-yl)acetamide] yielded a GI50 [1, 3] of 300 to 3000 nM and an IC50 [2, 4] of 1 to 10 nM.

With CC(C)N1CCN(c2cc(-c3cc(F)cc(-c4ccc(-n5ccn(C)c5=O)c(Cl)c4)c3O)ccc2C(F)(F)F)CC1 [Example 811, 1-(3-chloro-5′-fluoro-2′-hydroxy-3″-(4-isopropylpiperazin-1-yl)-4″-(trifluoromethyl)-[1,1′:3′,1″-terphenyl]-4-yl)-3-methyl-1H-imidazol-2(3H)-one] the GI50 [1, 3] was 30 to 300 nM and the IC50 [2, 4] was 1 to 10 nM.

For CC(C)N1CCN(c2cc(-c3cc(F)cc(-c4ccc(-n5ccn(C)c5=O)c(Cl)c4)c3O)cnc2C(F)F)CC1 [Example 831, 1-(3-chloro-3′-(6-(difluoromethyl)-5-(4-isopropylpiperazin-1-yl)pyridin-3-yl)-5′-fluoro-2′-hydroxy-[1,1′-biphenyl]-4-yl)-3-methyl-1H-imidazol-2(3H)-one], the GI50 [1, 3] was 0.3 to 30 nM and the IC50 [2, 4] was 1 to 10 nM.

With Cn1ccn(-c2ccc(-c3cc(F)cc(-c4ccnc(N5CCN(C[C@@H](O)CO)CC5)c4)c3O)cc2Cl)c1=O [Example 610, (R)-1-(3-chloro-3′-(2-(4-(2,3-dihydroxypropyl)piperazin-1-yl)pyridin-4-yl)-5′-fluoro-2′-hydroxy-[1,1′-biphenyl]-4-yl)-3-methyl-1H-imidazol-2(3H)-one] the GI50 [1, 3] was 0.3 to 30 nM and the IC50 [2, 4] was 0.01 to 1 nM.

Work on CC(=O)Nc1cnc(-c2cc(F)cc(-c3cccc(N4CCN(C(C)(C)C)CC4)c3)c2O)cn1 [Example 887] yielded a GI50 [1, 5] of 300 to 3000 nM and an IC50 [2, 6] of over 100 nM.

COc1ncc(-c2cc(F)cc(-c3ccc(-n4ccn(C)c4=O)c(Cl)c3)c2O)cc1N1CC[C@]2(CCCN2C(C)C)C1 [Example 958, (R)-1-(3-chloro-5′-fluoro-2′-hydroxy-3′-(5-(1-isopropyl-1,7-diazaspiro[4.4]nonan-7-yl)-6-methoxypyridin-3-yl)-[1,1′-biphenyl]-4-yl)-3-methyl-1,3-dihydro-2H-imidazol-2-one] was tested, and the GI50 [1, 5] was 0.3 to 30 nM and the IC50 [2, 6] was 0.01 to 1 nM.

Cn1ccn(-c2ccc(-c3cc(F)cc(-c4ccnc(N5CC[C@](C)(N)C5)c4)c3O)cc2Cl)c1=O [Example 711, (S)-1-(3′-(2-(3-amino-3-methylpyrrolidin-1-yl)pyridin-4-yl)-3-chloro-5′-fluoro-2′-hydroxy-[1,1′-biphenyl]-4-yl)-3-methyl-1,3-dihydro-2H-imidazol-2-one] gave a GI50 [1, 3] of 0.3 to 30 nM and an IC50 [2, 4] of 0.01 to 1 nM.

For Cc1cc(-c2ccc(-n3ccn(C)c3=O)c(Cl)c2)c(O)c(-c2cc(N3CCN(C(C)(C)C)CC3)c(=O)n(C)c2)n1 [Example 1011, 5′-(4-(tert-butyl)piperazin-1-yl)-4-(3-chloro-4-(3-methyl-2-oxo-2,3-dihydro-1H-imidazol-1-yl)phenyl)-3-hydroxy-1′,6-dimethyl-[2,3′-bipyridin]-6′(1′H)-one], the GI50 [1, 5] was 0.3 to 30 nM and the IC50 [2, 6] was 10 to 100 nM.

In the case of Cn1ccn(-c2ccc(-c3cc(F)cc(-c4cc(N5CCN6CCCCC6C5)c5cnn(C)c5c4)c3O)cc2Cl)c1=O (stereo not shown) [Example 609, 1-(3-chloro-5′-fluoro-3′-(4-(hexahydro-1H-pyrido[1,2-a]pyrazin-2(6H)-yl)-1-methyl-1H-indazol-6-yl)-2′-hydroxy-[1,1′-biphenyl]-4-yl)-3-methyl-1H-imidazol-2(3H)-one], the GI50 [1, 3] is reported as 0.3 to 30 nM and the IC50 [2, 4] is reported as 0.01 to 1 nM.

Cn1ccn(-c2ccc(-c3cc(F)cc(-c4ccnc(N5CC[S+]([O-])CC5)c4)c3O)cc2Cl)c1=O [Example 690, 1-(3-chloro-5′-fluoro-2′-hydroxy-3′-(2-(1-oxidothiomorpholino)pyridin-4-yl)-[1,1′-biphenyl]-4-yl)-3-methyl-1H-imidazol-2(3H)-one] gave a GI50 [1, 3] of 30 to 300 nM and an IC50 [2, 4] of 0.01 to 1 nM.

Work on CN1CCN(c2ccc(-c3cc(F)cc(-c4cc(N5CCNCC5)c5[nH]ncc5c4)c3O)cc2Cl)C1=O [Example 424, 1-(3-chloro-5′-fluoro-2′-hydroxy-3′-(7-(piperazin-1-yl)-1H-indazol-5-yl)-[1,1′-biphenyl]-4-yl)-3-methylimidazolidin-2-one] yielded a GI50 [1, 3] of 30 to 300 nM and an IC50 [2, 4] of 0.01 to 1 nM.

For Cn1ccn(-c2ccc(-c3cc(F)cc(-c4cc(N5CCC[C@H](N)C5)c5cn[nH]c5c4)c3O)cc2Cl)c1=O [Example 578], the GI50 [1, 3] was 0.3 to 30 nM and the IC50 [2, 4] was 0.01 to 1 nM.

C[C@@H]1CN(c2cncc(-c3cc(F)cc(-c4ccc(-n5ccn(C)c5=O)c(Cl)c4)c3O)c2)CCN1C [Example 474, (R)-1-(3-chloro-3′-(5-(3,4-dimethylpiperazin-1-yl)pyridin-3-yl)-5′-fluoro-2′-hydroxy-[1,1′-biphenyl]-4-yl)-3-methyl-1H-imidazol-2(3H)-one] gave a GI50 [1, 3] of 0.3 to 30 nM and an IC50 [2, 4] of 0.01 to 1 nM.
